Data from patent US10519159B2, “Antiviral aliphatic ester prodrugs of tenofovir” (Merck Sharp & Dohme Corp., priority 2016, dated 2019).
Where two headings read alike, the source gives them in different places.

Assays:
HIV-1 (H9/IIIB strain) = assay: Multiple round HIV-1 infection assay (Viking assay) in MT4-GFP cells; type: cell-based
Protocol: Assessing Antiviral Potency in a Multiple Round HIV-1 Infection Assay (Viking Assay)
The antiviral activity of the tenofovir prodrugs of the Examples herein was assessed in an assay that measures the rate of replication of HIV in cell culture, termed the Viking assay (Viral KINetics in Green cells) and performed as follows. HIV-1 replication was monitored using MT4-gag-GFP clone D3 (hereafter designated MT4-GFP), which are MT-4 cells modified to harbor a GFP reporter gene, the expression of which is dependent on the HIV-1 expressed proteins tat and rev. Productive infection of an MT4-GFP cell with HIV-1 results in GFP expression approximately 24 h post-infection. MT4-GFP cells were maintained at 37° C./5% CO2/90% relative humidity in RPMI 1640 supplemented with 10% fetal bovine serum, 100 U/ml penicillin/streptomycin, and 400 μg/ml G418 to maintain the reporter gene. For infections, MT4-GFP cells were placed in the same medium lacking G418 and infected overnight with HIV-1 (H9/IIIB strain) virus at an approximate multiplicity of infection of 0.01 in the same incubation conditions. Cells were then washed and re-suspended in either RPMI 1640 supplemented with 10% or 50% normal human serum (NHS) at 1.6×10^5 cells/mL (10% NHS or 50% NHS, respectively). Compound plates were prepared by dispensing compounds dissolved in DMSO into wells of 384 well poly-D-lysine-coated plates (0.2 μl/well) using an ECHO acoustic dispenser. Each compound was tested in a 10-point serial 3-fold dilution (typical final concentrations: 8.4 μM-0.42 nM). Controls included no inhibitor (DMSO only) and a combination of three antiviral agents (efavirenz, indinavir, an in-house integrase strand transfer inhibitor at final concentrations of 4 μM each). Cells were added (50 μL/well) to compound plates and the infected cells were maintained at 37° C./5% CO2/90% relative humidity.
Infected cells were quantified at two time points, ˜48 h and ˜72 h post-infection, by counting the number of green cells in each well using an Acumen eX3 scanner. The increase in the number of green cells over ˜24 h period gives the reproductive ratio, R0, which is typically 5-15 and has been shown experimentally to be in logarithmic phase (data not shown). Inhibition of R0 is calculated for each well, and IC50s determined by non-linear 4-parameter curve fitting.

[1] = Prodrug stability assay in bio-relevant media (FaSSIF with pancreatin), GI tract stability; type: in vitro ADME
Protocol: Prodrug Stability Assay in Bio-Relevant Media
The following assay was employed to evaluate the stability of the prodrugs in simulated gastrointestinal tract conditions. Preparation of fasted state simulated intestinal fluid (FaSSIF) using Phares SIF Powder was carried out according to protocols from Phare Drug Delivery AG (Baselland, Switzerland). For sample preparation, 10 μL stock solutions (10 mM) of prodrug substance in DMSO was added to 990 μL of 0.5 mg/mL Pancreatin solution (Fisher CAS #8049-47-6) in FaSSIF. Two samples were prepared for each compound. If the sample was a clear solution, it was directly analyzed by HPLC. If the sample was not clear, the sample was […], maintained at 37° C. and observed 5 h later. If the sample was clear, HPLC analysis was directly performed. If the sample was still not clear, the sample was diluted with 100% ACN and assayed by HPLC. All the samples were vortexed for 3 min and observed before injection. For the diluted samples, the area is multiplied by a dilution factor when the data is analyzed. The analysis was carried out with an Agilent 1100 series HPLC with autosampler. The column was a Poroshell 120 EC-C18, 4.6×50 mm, 2.7 μm. The flow rate was 1.8 mL/min, and the injection volume was 5 or 10 μL. UV detection was in the range 210-400 nm. The mobile phase consisted of solvent A (water plus 10 mM tetrabutylammonium bromide) and solvent B (acetonitrile) with a gradient of: 90% solvent A at 0 min, changing to 95% solvent B over 6 min, maintaining for 1.5 min, then reverting to 90% solvent A over 1.6 min. The HPLC peak area of the prodrug at 5 h was divided by the HPLC peak area of the prodrug at 0 h, to generate the % claimed parent ratio, which is summarized in Table 1 for gastrointestinal (GI) Tract stability.

[2] = Table 1, MT4-GFP cells infected with HIV-1 H9/IIIB, 10% normal human serum, read-out: Viking, IC50 (10% NHS)
[3] = Table 1, MT4-GFP cells infected with HIV-1 H9/IIIB, 50% normal human serum, read-out: Viking, IC50 (50% NHS)
[4] = Table 1, % parent: HPLC peak area of prodrug at 5 h / 0 h, 0.5 mg/mL pancreatin in FaSSIF, 37° C.
[5] = Table 2, L-Ala comparison compounds, % parent at 5 h vs 0 h, pancreatin in FaSSIF
[6] = Human immunodeficiency virus 1, IIIB, Table 2, L-Ala comparison compounds, MT4-GFP cells, HIV-1 H9/IIIB, 10% normal human serum, read-out: Viking, IC50 (10% NHS)
[7] = Human immunodeficiency virus 1, IIIB, Table 2, L-Ala comparison compounds, MT4-GFP cells, HIV-1 H9/IIIB, 50% normal human serum, read-out: Viking, IC50 (50% NHS)
[8] = Human immunodeficiency virus 1, IIIB, Table 1, MT4-GFP cells infected with HIV-1 H9/IIIB, 10% normal human serum, read-out: Viking, IC50 (10% NHS)
[9] = Human immunodeficiency virus 1, IIIB, Table 1, MT4-GFP cells infected with HIV-1 H9/IIIB, 50% normal human serum, read-out: Viking, IC50 (50% NHS)

Structure (SMILES) | IC50 (HIV-1 (H9/IIIB strain); [2]) | IC50 (HIV-1 (H9/IIIB strain); [3]) | further results
CC(C)OC(=O)C1(COP(=O)(CO[C@H](C)Cn2cnc3c(N)ncnc32)NC(C)(C)C(=O)OC(C)C)CC1 (single isomer, unassigned) [Example 3B] | 16.8 nM | 70.9 nM | 
CCCOC(=O)C(C)(C)NP(=O)(CO[C@H](C)Cn1cnc2c(N)ncnc21)OCCC(=O)OC(C)C (single isomer, unassigned) [Example 1A] | 23.2 nM | 102 nM | 
CCCOC(=O)C(C)(C)NP(=O)(CO[C@H](C)Cn1cnc2c(N)ncnc21)OCc1cccc(C(=O)OC(C)C)c1 (single isomer, unassigned) [Example 14A] | 1.71 nM | 7.58 nM | GI Tract stability [1, 4]: 96.71%
CCCOC(=O)C(C)(C)NP(=O)(CO[C@H](C)Cn1cnc2c(N)ncnc21)OCCc1cccc(C(=O)OC(C)C)c1 (single isomer, unassigned) [Example 11A] | 2.18 nM | 6.39 nM | GI Tract stability [1, 4]: 88.58%
CCCOC(=O)[C@H](C)NP(=O)(CO[C@H](C)Cn1cnc2c(N)ncnc21)OCc1ccc(F)cc1C(=O)OC(C)C (single isomer, unassigned) [Compound 17A, reference compound] |  |  | GI Tract stability [1, 5]: 20.3%; IC50 (HIV-1 (H9/IIIB strain); [6]): 35 nM; IC50 (HIV-1 (H9/IIIB strain); [7]): 2230 nM
CCCCCOC(=O)C(C)(C)NP(=O)(CO[C@H](C)Cn1cnc2c(N)ncnc21)OCCC(=O)OC(C)C (single isomer, unassigned) [Example 8B] | 7.59 nM | 49.8 nM | GI Tract stability [1, 4]: 99.59%
CCCOC(=O)C(C)(C)NP(=O)(CO[C@H](C)Cn1cnc2c(N)ncnc21)OCC[C@H](C)C(=O)OC(C)C (single isomer, unassigned) [Example 6A] | 5.54 nM | 15.5 nM | 
CC(C)OC(=O)C1(COP(=O)(CO[C@H](C)Cn2cnc3c(N)ncnc32)NC(C)(C)C(=O)OC(C)C)CC1 (single isomer, unassigned) [Example 3A] | 88.7 nM | 521 nM | 
CC(C)OC(=O)[C@@H](C)CCOP(=O)(CO[C@H](C)Cn1cnc2c(N)ncnc21)NC(C)(C)C(=O)OC(C)C (single isomer, unassigned) [Example 5A] | 7.52 nM | 33.6 nM | 
CCCOC(=O)C(C)(C)N[P@](=O)(CO[C@H](C)Cn1cnc2c(N)ncnc21)OCc1ccc(F)cc1C(=O)OC(C)C (single isomer, unassigned) [Example 7B] |  |  | GI Tract stability [1, 4]: 95.0%; IC50 (HIV-1 (H9/IIIB strain); [8]): 1.08 nM; IC50 (HIV-1 (H9/IIIB strain); [9]): 5.55 nM
CC(C)OC(=O)C(C)(C)COP(=O)(CO[C@H](C)Cn1cnc2c(N)ncnc21)NC(C)(C)C(=O)OC(C)C (single isomer, unassigned) [Example 9B] | 8.34 nM | 26.4 nM | GI Tract stability [1, 4]: 98.18%
CC(C)OC(=O)[C@@H](C)CCOP(=O)(CO[C@H](C)Cn1cnc2c(N)ncnc21)NC(C)(C)C(=O)OC(C)C (single isomer, unassigned) [Example 5B] | 540 nM | 2220 nM | 
CCCOC(=O)[C@H](C)NP(=O)(CO[C@H](C)Cn1cnc2c(N)ncnc21)OCCC(=O)OC(C)C (single isomer, unassigned) [Compound 15A, reference compound] |  |  | GI Tract stability [1, 5]: 60.1%; IC50 (HIV-1 (H9/IIIB strain); [6]): 101 nM; IC50 (HIV-1 (H9/IIIB strain); [7]): 1220 nM
CC(C)OC(=O)C[C@H](C)OP(=O)(CO[C@H](C)Cn1cnc2c(N)ncnc21)NC(C)(C)C(=O)OC(C)C (single isomer, unassigned) [Example 10B] | 284 nM | 1070 nM | 
CCCOC(=O)[C@H](C)NP(=O)(CO[C@H](C)Cn1cnc2c(N)ncnc21)OCCC(=O)OC(C)C (stereo partly drawn) [Compound 15B, reference compound] |  |  | IC50 (HIV-1 (H9/IIIB strain); [6]): 340 nM
CCCOC(=O)C(C)(C)N[P@@](=O)(CO[C@H](C)Cn1cnc2c(N)ncnc21)OCc1ccc(F)cc1C(=O)OC(C)C (single isomer, unassigned) [Example 7A] |  |  | IC50 (HIV-1 (H9/IIIB strain); [8]): 107 nM; IC50 (HIV-1 (H9/IIIB strain); [9]): 654 nM
CCCOC(=O)C(C)(C)NP(=O)(CO[C@H](C)Cn1cnc2c(N)ncnc21)OCCc1cccc(C(=O)OC(C)C)c1 (single isomer, unassigned) [Example 11B] | 45.8 nM | 302 nM | 
CCCOC(=O)[C@H](C)NP(=O)(CO[C@H](C)Cn1cnc2c(N)ncnc21)OCc1ccc(F)cc1C(=O)OC(C)C (stereo partly drawn) [Compound 17B, reference compound] |  |  | IC50 (HIV-1 (H9/IIIB strain); [6]): 570 nM
CCCOC(=O)[C@H](C)NP(=O)(CO[C@H](C)Cn1cnc2c(N)ncnc21)OCC[C@H](C)C(=O)OC(C)C (stereo partly drawn) [Compound 16B, reference compound] |  |  | IC50 (HIV-1 (H9/IIIB strain); [6]): 730 nM
CCCOC(=O)C(C)(C)NP(=O)(CO[C@H](C)Cn1cnc2c(N)ncnc21)OCC[C@H](C)C(=O)OC(C)C (single isomer, unassigned) [Example 6B] | 73.1 nM | 246 nM | 
CC(C)OC(=O)CCOP(=O)(CO[C@H](C)Cn1cnc2c(N)ncnc21)NC(C)(C)C(=O)OC(C)C (single isomer, unassigned) [Example 2B] | 601 nM | 622 nM | 
CCCSC(=O)C(C)(C)NP(=O)(CO[C@H](C)Cn1cnc2c(N)ncnc21)OCCC(=O)OC(C)C (single isomer, unassigned) [Example 13B] | 99.6 nM | 248 nM | 
CC(C)OC(=O)C(C)(C)COP(=O)(CO[C@H](C)Cn1cnc2c(N)ncnc21)NC(C)(C)C(=O)OC(C)C (single isomer, unassigned) [Example 9A] | 173 nM | 562 nM | 
CCOC(=O)C1(CCOP(=O)(CO[C@H](C)Cn2cnc3c(N)ncnc32)NC(C)(C)C(=O)OC(C)C)CC1 (single isomer, unassigned) [Example 4A] | 252 nM | 756 nM | 
CCCOC(=O)C(C)(C)NP(=O)(CO[C@H](C)Cn1cnc2c(N)ncnc21)OCc1cccc(C(=O)OC(C)C)c1 (single isomer, unassigned) [Example 14B] | 16.7 nM | 114 nM | 
